{
  "source": "ChEMBL document CHEMBL3580654",
  "about": "“Tetranorsesquiterpenoids and Santalane-Type Sesquiterpenoids from Illicium lanceolatum and Their Antimicrobial Activity against the Oral Pathogen Porphyromonas gingivalis” (J Nat Prod, 2015)",
  "key": {"[1]": {"tested_on": "Porphyromonas gingivalis", "experiment": "Antibacterial activity against Porphyromonas gingivalis ATCC 33277 assessed as growth inhibition at 5 to 20 ug/ml after 100 hrs by microplate reader analysis", "assay_type": "functional, organism-based"}, "[2]": {"tested_on": "Streptococcus oralis", "experiment": "Antibacterial activity against Streptococcus oralis SK23 assessed as effect on growth at 5 to 20 ug/ml after 24 hrs by microplate reader analysis", "assay_type": "functional", "details": "ATCC 35037"}, "[3]": {"tested_on": "Streptococcus mutans", "experiment": "Antibacterial activity against Streptococcus mutans MT8148 assessed as growth inhibition at 5 to 20 ug/ml after 24 hrs by microplate reader analysis", "assay_type": "functional, organism-based"}, "[4]": {"tested_on": "Streptococcus parasanguinis", "experiment": "Antibacterial activity against […] ATCC 903 assessed as effect on growth at 5 to 20 ug/ml after 24 hrs by microplate reader analysis", "assay_type": "functional"}, "[5]": {"tested_on": "Streptococcus sobrinus", "experiment": "Antibacterial activity against Streptococcus sobrinus MT10186 assessed as effect on growth at 5 to 20 ug/ml after 24 hrs by microplate reader analysis", "assay_type": "functional, organism-based"}, "[6]": {"tested_on": "Porphyromonas gingivalis", "experiment": "Antibacterial activity against Porphyromonas gingivalis ATCC 33277 assessed as growth inhibition at 10 to 20 ug/ml after 100 hrs by microplate reader analysis", "assay_type": "functional, organism-based"}, "[7]": {"tested_on": "Streptococcus mutans", "experiment": "Antibacterial activity against Streptococcus mutans MT8148 assessed as growth inhibition at 20 ug/ml after 24 hrs by microplate reader analysis", "assay_type": "functional, organism-based"}},
  "note": "Active and inactive are the calls of the source. The calls are words filed in the database; no cut-off is given here.",
  "data": [
    {"smiles": "CC(C)(O)/C=C/CC1(C)C2CC3C(C2)C31C", "note": "(stereo unspecified)", "values": [
      {"measurement": "growth inhibition (GI)", "setting": "[1]", "result": "inactive"},
      {"measurement": "Activity", "setting": "[2]", "result": "inactive"},
      {"measurement": "growth inhibition (GI)", "setting": "[3]", "result": "inactive"},
      {"measurement": "Activity", "setting": "[4]", "result": "inactive"},
      {"measurement": "Activity", "setting": "[5]", "result": "inactive"}
    ]},
    {"smiles": "C=C(C)C(=O)CCC1(C)C2CC3C(C2)C31C", "note": "(stereo unspecified)", "values": [
      {"measurement": "Activity", "setting": "[2]", "result": "inactive"},
      {"measurement": "growth inhibition (GI)", "setting": "[6]", "result": "Active"},
      {"measurement": "Activity", "setting": "[4]", "result": "inactive"},
      {"measurement": "growth inhibition (GI)", "setting": "[7]", "result": "Active"},
      {"measurement": "Activity", "setting": "[5]", "result": "inactive"}
    ]},
    {"smiles": "C=C[C@@]1(C)CC[C@]2(OC(=O)C=C2C)O1", "values": [
      {"measurement": "Activity", "setting": "[2]", "result": "inactive"},
      {"measurement": "Activity", "setting": "[4]", "result": "inactive"},
      {"measurement": "Activity", "setting": "[5]", "result": "inactive"}
    ]},
    {"smiles": "CC12CC(=O)O[C@H]3CC1CC[C@]32C", "values": [
      {"measurement": "Activity", "setting": "[2]", "result": "inactive"},
      {"measurement": "Activity", "setting": "[4]", "result": "inactive"},
      {"measurement": "Activity", "setting": "[5]", "result": "inactive"}
    ]}
  ]
}
